{"source": "ChEMBL document CHEMBL1201862", "about": "“PubChem BioAssay data set” (2004)", "assay_in_all_cases": "NCI-60 cell line screen, 48 h", "key": {"MDA-N": {"test_system": "MDA-N"}, "DLD-1": {"test_system": "DLD-1"}, "DMS-114": {"test_system": "DMS-114"}, "DMS-273": {"test_system": "DMS-273"}, "HOP-18": {"test_system": "HOP-18"}, "M19-MEL": {"test_system": "M19-MEL"}, "XF498": {"test_system": "XF498"}, "LXFL 529": {"test_system": "LXFL 529"}, "RXF 631": {"test_system": "RXF 631"}}, "note": "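Five concentrations, 48 hours, 96-well plates. At the GI50, growth is halved.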 The source made the active and inactive calls. Cut-off read from the data, not from the text of the source: active = GI50 up to about 1.1 µM and inactive = higher.", "data": [{"smiles": "COC(=O)C(/C(=N/N)C(=O)Nc1cc(Cl)c(Cl)cc1Cl)c1nc2ccc(Cl)cc2nc1O", "note": "(configuration not stated)", "values": [{"measurement": "GI50", "setting": "MDA-N", "value": "> 100 µM (inactive)"}]}, {"smiles": "COCCOCOc1ccc(OCOCCOC)c2c1C(=O)c1ccccc1C2=O", "values": [{"measurement": "GI50", "setting": "DLD-1", "value": "26.3 µM (inactive)"}, {"measurement": "GI50", "setting": "DMS-114", "value": "3.19 µM (inactive)"}, {"measurement": "GI50", "setting": "DMS-273", "value": "49.1 µM (inactive)"}, {"measurement": "GI50", "setting": "HOP-18", "value": "77.1 µM (inactive)"}, {"measurement": "GI50", "setting": "M19-MEL", "value": "16.7 µM (inactive)"}, {"measurement": "GI50", "setting": "XF498", "value": "> 100 µM (inactive)"}]}, {"smiles": "Cc1nc2cccc([N+](=O)[O-])c2n1CCCN(C)C", "values": [{"measurement": "GI50", "setting": "MDA-N", "value": "> 100 µM (inactive)"}]}, {"smiles": "COC(=O)CCC(=O)N1C/C(=C\\c2ccccc2)C(=O)/C(=C/c2ccccc2)C1", "values": [{"measurement": "GI50", "setting": "DLD-1", "value": "2.04 µM (inactive)"}, {"measurement": "GI50", "setting": "DMS-114", "value": "1.73 µM (inactive)"}, {"measurement": "GI50", "setting": "DMS-273", "value": "0.708 µM (active)"}, {"measurement": "GI50", "setting": "HOP-18", "value": "2.34 µM (inactive)"}, {"measurement": "GI50", "setting": "LXFL 529", "value": "2.09 µM (inactive)"}, {"measurement": "GI50", "setting": "M19-MEL", "value": "2.39 µM (inactive)"}, {"measurement": "GI50", "setting": "XF498", "value": "5.87 µM (inactive)"}]}, {"smiles": "CS(=O)(=O)CC1=Nc2nnc(CCCCCCCc3nnc4n3C(=O)C(CS(C)(=O)=O)=N4)n2C1=O", "values": [{"measurement": "GI50", "setting": "DMS-114", "value": "> 100 µM (inactive)"}, {"measurement": "GI50", "setting": "HOP-18", "value": "> 100 µM (inactive)"}, {"measurement": "GI50", "setting": "LXFL 529", "value": "> 100 µM (inactive)"}, {"measurement": "GI50", "setting": "M19-MEL", "value": "> 100 µM (inactive)"}, {"measurement": "GI50", "setting": "XF498", "value": "> 100 µM (inactive)"}]}, {"smiles": "O=S(=O)(N/C(=N\\O)Nc1ccc(Cl)cc1)c1cc(C(F)(F)F)cc(C(F)(F)F)c1", "values": [{"measurement": "GI50", "setting": "MDA-N", "value": "21 µM (inactive)"}]}, {"smiles": "O=C(NCCCCN(CCCNC(=O)C(F)(F)F)Cc1ccc2ccccc2c1)C(F)(F)F", "values": [{"measurement": "GI50", "setting": "MDA-N", "value": "17.4 µM (inactive)"}]}, {"smiles": "CC1=NOC2(C1)C(=O)Nc1ccccc12", "note": "(configuration not stated)", "values": [{"measurement": "GI50", "setting": "MDA-N", "value": "> 100 µM (inactive)"}]}, {"smiles": "O=C(Cc1ccccc1)N/N=C(/CCN1CCCC1)CC(c1ccccc1)c1c(O)c2ccccc2oc1=O", "note": "(configuration not stated)", "values": [{"measurement": "GI50", "setting": "MDA-N", "value": "> 100 µM (inactive)"}]}, {"smiles": "COc1cc2c(cc1O)[C@H](C)C(c1ccc(OC)c(OC)c1)O2", "note": "(some centres not stated)", "values": [{"measurement": "GI50", "setting": "DLD-1", "value": "8.11 µM (inactive)"}, {"measurement": "GI50", "setting": "DMS-114", "value": "3.56 µM (inactive)"}, {"measurement": "GI50", "setting": "DMS-273", "value": "3.84 µM (inactive)"}, {"measurement": "GI50", "setting": "HOP-18", "value": "4.36 µM (inactive)"}, {"measurement": "GI50", "setting": "LXFL 529", "value": "9.35 µM (inactive)"}, {"measurement": "GI50", "setting": "M19-MEL", "value": "4.18 µM (inactive)"}, {"measurement": "GI50", "setting": "XF498", "value": "10.1 µM (inactive)"}]}, {"smiles": "CC1(C)CC(=O)C2=C(C1)NC(SCC(=O)O)=C(C#N)C2c1ccc(Br)cc1", "note": "(configuration not stated)", "values": [{"measurement": "GI50", "setting": "MDA-N", "value": "> 100 µM (inactive)"}]}, {"smiles": "N[C@H](C(=O)O)[C@@H]1CC(Br)=NO1", "values": [{"measurement": "GI50", "setting": "MDA-N", "value": "8.41 µM (inactive)"}]}, {"smiles": "O=C1CCC2c3ccccc3NCN12", "note": "(configuration not stated)", "values": [{"measurement": "GI50", "setting": "MDA-N", "value": "> 100 µM (inactive)"}]}, {"smiles": "O=C(c1cc(Br)ccc1O)c1cc(Br)ccc1O", "values": [{"measurement": "GI50", "setting": "MDA-N", "value": "14.3 µM (inactive)"}]}, {"smiles": "Cc1cc2c(cc1C)[n+]([O-])c(C(=O)/C=C/c1ccccc1[N+](=O)[O-])c(C)[n+]2[O-]", "values": [{"measurement": "GI50", "setting": "DLD-1", "value": "77.6 µM (inactive)"}, {"measurement": "GI50", "setting": "DMS-114", "value": "17.8 µM (inactive)"}, {"measurement": "GI50", "setting": "DMS-273", "value": "34.1 µM (inactive)"}, {"measurement": "GI50", "setting": "HOP-18", "value": "38.5 µM (inactive)"}, {"measurement": "GI50", "setting": "LXFL 529", "value": "> 91.6 µM (inactive)"}, {"measurement": "GI50", "setting": "M19-MEL", "value": "> 80 µM (inactive)"}, {"measurement": "GI50", "setting": "MDA-N", "value": "> 96.2 µM (inactive)"}, {"measurement": "GI50", "setting": "XF498", "value": "22.3 µM (inactive)"}]}, {"smiles": "CCN(CC(COc1ccc2c(c1)[n+]([O-])nc(N)[n+]2[O-])OC(C)=O)C(C)=O", "note": "(configuration not stated)", "values": [{"measurement": "GI50", "setting": "MDA-N", "value": "85.7 µM (inactive)"}]}, {"smiles": "CN(C)CC1CCC/C(=C\\c2ccc(Cl)c(Cl)c2)C1=O", "note": "(configuration not stated)", "values": [{"measurement": "GI50", "setting": "MDA-N", "value": "3.42 µM (inactive)"}]}, {"smiles": "O=C1c2cc(Cl)ccc2N=C(NCCCl)C2CSCN12", "note": "(configuration not stated)", "values": [{"measurement": "GI50", "setting": "MDA-N", "value": "> 100 µM (inactive)"}]}, {"smiles": "CC(C)(C)C1CC[C@H](O)[C@H]([C@@H](O)CC2CC(=O)N(c3ccccc3)C(=O)C2)C1", "note": "(some centres not stated)", "values": [{"measurement": "GI50", "setting": "MDA-N", "value": "> 100 µM (inactive)"}]}, {"smiles": "CN(CCCN1CCCC1)CCCN(C)C(=O)Cc1ccc(Cl)c(Cl)c1", "values": [{"measurement": "GI50", "setting": "MDA-N", "value": "4.22 µM (inactive)"}]}, {"smiles": "C[C@]12CC[C@@H]3c4ccc(OC(=O)c5ccccc5)cc4CC[C@H]3[C@@H]1CCC2OC(=O)c1cccc2c(=O)c3ccccc3[nH]c12", "note": "(some centres not stated)", "values": [{"measurement": "GI50", "setting": "MDA-N", "value": "11.1 µM (inactive)"}]}, {"smiles": "O=C(c1ccco1)N1CCN(C(=O)c2ccco2)C1=S", "values": [{"measurement": "GI50", "setting": "MDA-N", "value": "4.7 µM (inactive)"}]}, {"smiles": "Cc1coc2c1C(=O)C(=O)c1c-2ccc2c1CCCC2(C)C", "note": "[TANSHINONE IIA]", "values": [{"measurement": "GI50", "setting": "MDA-N", "value": "1.37 µM (inactive)"}]}, {"smiles": "CC(C)(C)OC(=O)N1C(OP(=O)(Oc2ccccc2)Oc2ccccc2)=CSc2ccccc21", "values": [{"measurement": "GI50", "setting": "MDA-N", "value": "34 µM (inactive)"}]}, {"smiles": "O=C(O/N=C1/CCC/C1=C\\c1ccccc1)c1ccc([N+](=O)[O-])cc1", "values": [{"measurement": "GI50", "setting": "DLD-1", "value": "> 100 µM (inactive)"}, {"measurement": "GI50", "setting": "DMS-114", "value": "> 100 µM (inactive)"}, {"measurement": "GI50", "setting": "DMS-273", "value": "> 100 µM (inactive)"}, {"measurement": "GI50", "setting": "HOP-18", "value": "> 100 µM (inactive)"}, {"measurement": "GI50", "setting": "LXFL 529", "value": "> 100 µM (inactive)"}, {"measurement": "GI50", "setting": "M19-MEL", "value": "15.5 µM (inactive)"}, {"measurement": "GI50", "setting": "RXF 631", "value": "> 100 µM (inactive)"}]}, {"smiles": "C/C(=N\\Nc1nc2ccccc2s1)c1ccncn1", "values": [{"measurement": "GI50", "setting": "MDA-N", "value": "9.44 µM (inactive)"}]}, {"smiles": "CN1C2(c3ccccc3)C(C(=O)c3ccccc3)=C(C(=O)c3ccccc3)C1(c1ccccc1)c1c(-c3ccccc3)sc(-c3ccccc3)c12", "values": [{"measurement": "GI50", "setting": "DLD-1", "value": "> 100 µM (inactive)"}, {"measurement": "GI50", "setting": "DMS-114", "value": "> 100 µM (inactive)"}, {"measurement": "GI50", "setting": "DMS-273", "value": "> 100 µM (inactive)"}, {"measurement": "GI50", "setting": "LXFL 529", "value": "> 100 µM (inactive)"}, {"measurement": "GI50", "setting": "M19-MEL", "value": "> 100 µM (inactive)"}]}, {"smiles": "CCOC(=O)c1c(N)sc2c1C(C(=O)OCC)CC2", "note": "(configuration not stated)", "values": [{"measurement": "GI50", "setting": "MDA-N", "value": "> 100 µM (inactive)"}]}, {"smiles": "OC1C2CCC1C1C3C=CC(C3)C21", "note": "(configuration not stated)", "values": [{"measurement": "GI50", "setting": "DLD-1", "value": "> 100 µM (inactive)"}, {"measurement": "GI50", "setting": "DMS-114", "value": "59.6 µM (inactive)"}, {"measurement": "GI50", "setting": "DMS-273", "value": "94.4 µM (inactive)"}, {"measurement": "GI50", "setting": "HOP-18", "value": "> 100 µM (inactive)"}, {"measurement": "GI50", "setting": "LXFL 529", "value": "96.4 µM (inactive)"}, {"measurement": "GI50", "setting": "M19-MEL", "value": "> 100 µM (inactive)"}, {"measurement": "GI50", "setting": "XF498", "value": "> 100 µM (inactive)"}]}, {"smiles": "COc1ccc2c(c1)C(=O)Cc1ccccc1CC2", "values": [{"measurement": "GI50", "setting": "DLD-1", "value": "> 100 µM (inactive)"}, {"measurement": "GI50", "setting": "DMS-114", "value": "> 100 µM (inactive)"}, {"measurement": "GI50", "setting": "DMS-273", "value": "> 100 µM (inactive)"}, {"measurement": "GI50", "setting": "HOP-18", "value": "> 100 µM (inactive)"}, {"measurement": "GI50", "setting": "LXFL 529", "value": "> 100 µM (inactive)"}, {"measurement": "GI50", "setting": "M19-MEL", "value": "> 100 µM (inactive)"}, {"measurement": "GI50", "setting": "XF498", "value": "> 100 µM (inactive)"}]}, {"smiles": "CCCCCCCCCCCCCCC1OC(=O)c2ccccc21", "note": "(configuration not stated)", "values": [{"measurement": "GI50", "setting": "DLD-1", "value": "71.4 µM (inactive)"}, {"measurement": "GI50", "setting": "DMS-114", "value": "24 µM (inactive)"}, {"measurement": "GI50", "setting": "HOP-18", "value": "> 100 µM (inactive)"}, {"measurement": "GI50", "setting": "LXFL 529", "value": "77.1 µM (inactive)"}, {"measurement": "GI50", "setting": "M19-MEL", "value": "85.7 µM (inactive)"}, {"measurement": "GI50", "setting": "RXF 631", "value": "> 100 µM (inactive)"}]}, {"smiles": "Cc1cc2oc(=O)c(Cl)c(Cl)c2c(C)c1Cl", "values": [{"measurement": "GI50", "setting": "MDA-N", "value": "2.92 µM (inactive)"}]}]}
